Data as given in US8933228B2, “Respiratory formulations and compounds for use therein” (Respivert, Ltd., priority 2010, dated 2015).
Where two headings read alike, the source gives them in different places.

What was measured:
[1] = tested on: TNFα release in THP-1 cells; test: LPS-induced TNFα release in THP-1 cells; type: cell-based; settings: Homo sapiens, read-out: THP1 (LPS) TNFα IC50
Method: The inhibition of TNFα production was calculated at each concentration by comparison with vehicle control.

[2] = tested on: TNFα release in d-U937 cells; test: LPS-induced TNFα release in d-U937 cells; type: cell-based; settings: Homo sapiens, dU937, LPS 0.1 μg/mL, 4 hr, relative to 10 μg/mL BIRB796, read-out: d-U937 (LPS) TNFα REC50
Method: (§1) U937 cells, a human monocytic cell line, were differentiated to macrophage-type cells by incubation with phorbol myristate acetate (PMA; 100 ng/mL) for 48 to 72 hr, whereupon the cells become adherent. […] Coli: O111:B4, Sigma) for 4 hr. The supernatant was collected for determination of TNFα and IL-8 concentrations by sandwich ELISA (Duo-set, R&D systems). […] The relative 50% effective concentration (REC50) was determined from the resultant concentration-response curve. The inhibition of IL-8 production was calculated at each concentration of test compound by comparison with vehicle control.

[3] = tested on: IL-8 release in d-U937 cells; test: LPS-induced IL-8 release in d-U937 cells; type: cell-based; settings: Homo sapiens, read-out: d-U937 (LPS) IL-8 IC50
Method: as §1

[4] = tested on: ICAM-1 expression in BEAS2B cells; test: Poly I:C-induced ICAM-1 induction in BEAS2B cells; type: cell-based; settings: Homo sapiens, BEAS-2B, read-out: BEAS2B (polyIC) ICAM1 IC50
Method: Poly I:C (1 μg/mL) (Invivogene Ltd., San Diego, Calif.) was transfected into BEAS2B cells (human bronchial epithelial cells, ATCC) with Oligofectamine (Invitrogen, Carlsbad, Calif.). Cells were pre-incubated with final concentrations of test compounds for 2 hr and the level of ICAM1 expression on the cell surface was determined by cell-based ELISA. […] The cells were washed with PBS-Tween and incubated with the secondary antibody (HRP-conjugated anti-rabbit IgG, Dako Ltd., Glostrup, Denmark).

[5] = tested on: HRV16; test: Rhinovirus-titre assay; type: cell-based, human rhinovirus; settings: Human rhinovirus sp.; for inhibition at 0.04 µg/mL: cell not marked b, test compounds 0.04 μg/mL per method (footnote b, 0.2 μg/mL)
Method: MRC5 cells (human lung fibroblast, ATCC) were infected with 1 MOI (multiplicity of infection of 1.0) of HRV16 and incubated for 1 hr at 33° C. with gentle shaking to stimulate adsorption. The cells were then washed with PBS, fresh media was added and the cells were incubated for a further 96 hr. The supernatant was collected and 10-fold serial dilutions of virus containing supernatant were prepared. All titrations were performed by infecting confluent Hela cell monolayers with serially diluted supernatant (10^−1-10^−5) and assessing the cytopathic effect by visual inspection 4 days after infection. The amount of virus required to infect 50% of Hela cells was calculated in each treatment as TCID50. Test compounds (0.04 μg/mL) were added 2 hr before HRV infection and 1 hr after infection when non-infected HRV was washed out. The anti-HRV activity of each test compound was determined as the difference of the log TCID50 of HRV16 in the presence of the compound with the log TCID50 of HRV16 in the absence of compound. […]

[6] = tested on: Differentiated U937 cells; test: MTT assay: cell viability; type: cell-based, human; settings: for d-U937 MTT Assay 4 h: 5% FCS; for d-U937 MTT Assay 24 h: 10% FCS
Method: Differentiated U937 cells were pre-incubated with each test compound under two protocols: the first for 4 hr in 5% FCS and the second in 10% FCS for 24 h. The supernatant was replaced with 200 μL of new media and 10 μL of MTT stock solution (5 mg/mL) was added to each well. After incubation for 1 hr the media were removed, 200 μL of DMSO was added to each well and the plates were shaken lightly for 1 hr prior to reading the absorbance at 550 nm. The percentage loss of cell viability was calculated for each well relative to vehicle (0.5% DMSO) treatment. Consequently an apparent increase in cell viability for drug treatment relative to vehicle is tabulated as a negative percentage.

[7] = biological target: p38 MAPK γ (MAPK12) (Homo sapiens (Human), UniProt P53778); test: Enzyme inhibition assay (FRET, Z-LYTE), p38 MAPK gamma; type: biochemical; settings: read-out: Enzyme Profile: IC50 Values p38γ
Method: (§2) The enzyme inhibitory activity of test compounds was determined by fluorescence resonance energy transfer (FRET) using synthetic peptides labelled with both donor and acceptor fluorophores (Z-LYTE, Invitrogen). Recombinant, phosphorylated p38 MAPK γ (MAPK12:Millipore) was diluted in HEPES buffer, mixed with compound at the desired final concentrations and incubated for 2 hr at RT. The FRET peptide (2 μM) and ATP (100 μM) were next added to the enzyme/compound mixture and incubated for 1 hr. Development reagent (protease) was added for 1 hr prior to detection in a fluorescence microplate reader. The site-specific protease only cleaves non-phosphorylated peptide and eliminates the FRET signal. Phosphorylation levels of each reaction were calculated using the ratio of coumarin emission (donor) over fluorescein emission (acceptor) with high ratios indicating high phosphorylation levels and low ratios indicating low phosphorylation levels.

[8] = biological target: cSrc enzyme (Homo sapiens (Human), UniProt P12931); test: c-SRC enzyme inhibition assay (FRET, Z'-LYTE); type: biochemical; settings: read-out: Enzyme Profile: IC50 Values cSrc
[9] = biological target: p38 MAPK alpha (MAPK14) (Homo sapiens (Human), UniProt Q16539); test: Enzyme inhibition assay (FRET, Z-LYTE), p38 MAPK alpha via MAPKAP-K2 activation; type: biochemical; settings: read-out: Enzyme Profile: IC50 Values p38α
Method: as §2
For p38 MAPK alpha (MAPK14: Invitrogen), enzyme activity was evaluated indirectly by determining activation/phosphorylation of the down-stream molecule, MAPKAP-K2. The p38 MAPK a protein was mixed with compound for 2 hr at RT. […] Development reagent was then added and the mixture incubated for 1 hr before detection by fluorescence completed the assay protocol.
The enzyme inhibitory activity of compound was determined by fluorescence resonance energy transfer (FRET) using synthetic peptides labelled with both donor and acceptor fluorophores (Z′-LYTE, Invitrogen).

[10] = biological target: HCK enzyme (Homo sapiens (Human), UniProt P08631); test: HCK enzyme inhibition assay (FRET, Z'-LYTE); type: biochemical; settings: read-out: Enzyme Profile: IC50 Values HCK
[11] = dU937, d-U937 cells, LPS 0.1 μg/mL, 4 hr
[12] = BEAS2B cells, poly I:C 1 μg/mL, 18 hr
[13] = HRV16, cell marked b: performed at 0.2 μg/mL, read-out: HRV titre (inhibitory %): % inhibition observed vs. HRV16 infection control
[14] = HRV16, read-out: HRV titre (inhibitory %): % inhibition observed vs. HRV16 infection control

IC50 ([1]; THP-1 cells, LPS 3 μg/mL, 4 hr) [nM] | EC50 [2] [nM] | IC50 [3, 11] [nM] | IC50 [7] [nM] | IC50 [8] [nM] | IC50 [9] [nM] | IC50 [10] [nM] | Structure (SMILES) | IC50 [4, 12] [nM] | inhibition at 0.2 µg/mL [5, 13] [%] | d-U937 MTT Assay 4 h ([6]; performed at 10 μg/mL) | d-U937 MTT Assay 24 h ([6]; performed at 10 μg/mL) | inhibition at 0.04 µg/mL [5, 14] [%] | d-U937 MTT Assay 4 h ([6]; 1 μg/ml) | d-U937 MTT Assay 24 h ([6]; 1 μg/ml) | IC50 ([1]; THP-1, 4 h) [nM] | IC50 ([3]; dU937, 4 h) [nM] | IC50 ([4]; 18 h) [nM] | inhibition at 0.2 µg/mL [5, 14] [%]
4.1 | 4.8 | > 1890 | – | – | – | – | Cc1ccc(-n2nc(C(C)(C)C)cc2NC(=O)Nc2ccc(OCCN3CCOCC3)c3ccccc23)cc1 [BIRB 796, 1-(3-tert-butyl-1-p-tolyl-1H-pyrazol-5-yl)-3-(4-(2-morpholinoethoxy)naphthalen-1-yl)urea, reference compound] | 3530 | 28 | − ^d (− and + indicate the result is below and above the no significant effect threshold, respectively (<30% inhibition at a concentration of 1 μg/ml)) | − ^d (− and + indicate the result is below and above the no significant effect threshold, respectively (<30% inhibition at a concentration of 1 μg/ml)) | – | – | – | – | – | – | –
0.7 | 1.1 | 5.2 | 72 | 9 | – | – | Cc1ccc(-n2nc(C(C)(C)C)cc2NC(=O)Nc2ccc(Oc3ccnc4[nH]c(=O)cnc34)c3ccccc23)cc1 [Example 6] | 11 | – | – | – | 80 | − (− and + indicate the result is below and above the no significant effect threshold, respectively (<30% inhibition at a concentration of 1 μg/ml)) | − (− and + indicate the result is below and above the no significant effect threshold, respectively (<30% inhibition at a concentration of 1 μg/ml)) | – | – | – | –
11 | 7.1 | 3.3 | – | – | – | – | Cc1ccc(-n2nc(C(C)(C)C)cc2NC(=O)Nc2ccc(Oc3ccnc4[nH]c(=O)cnc34)c3ccccc23)s1 [Example 21] | – | – | – | – | 80 | − (− and + indicate the result is below and above the no significant effect threshold, respectively (<30% inhibition at a concentration of 1 μg/ml)) | − (− and + indicate the result is below and above the no significant effect threshold, respectively (<30% inhibition at a concentration of 1 μg/ml)) | – | – | – | –
– | 30 | 90 | 193 | 35 | 12 | 22 | COc1ccc(-n2nc(C(C)(C)C)cc2NC(=O)Nc2ccc(OCc3ccnc4[nH]c(=O)cnc34)c3ccccc23)cc1 [Example 23] | 23 | – | – | – | – | − (− and + indicate the result is below and above the no significant effect threshold, respectively (<30% inhibition at a concentration of 1 μg/ml)) | − (− and + indicate the result is below and above the no significant effect threshold, respectively (<30% inhibition at a concentration of 1 μg/ml)) | – | – | – | –
34 | 1.1 | 4.3 | – | – | – | – | Cc1ccc(-n2nc(C(C)C)cc2NC(=O)Nc2ccc(Oc3ccnc4[nH]c(=O)cnc34)c3ccccc23)cc1 [Example 30, 1-(3-isopropyl-1-(p-tolyl)-1H-pyrazol-5-yl)-3-(4-((3-oxo-3,4-dihydropyrido[2,3-b]pyrazin-8-yl)oxy)naphthalen-1-yl)urea] | 27 | – | – | – | 36 | − (− and + indicate the result is below and above the no significant effect threshold, respectively (<30% inhibition at a concentration of 1 μg/ml)) | − (− and + indicate the result is below and above the no significant effect threshold, respectively (<30% inhibition at a concentration of 1 μg/ml)) | – | – | – | –
8.8 | 5.5 | 7 | – | – | – | – | CC(C)(C)c1cc(NC(=O)Nc2ccc(Oc3ccnc4[nH]c(=O)cnc34)c3ccccc23)n(-c2ccc(Cl)c(Cl)c2)n1 [Example 32, 1-(3-(tert-butyl)-1-(3,4-dichlorophenyl)-1H-pyrazol-5-yl)-3-(4-((3-oxo-3,4-dihydropyrido[2,3-b]pyrazin-8-yl)oxy)naphthalen-1-yl)urea] | 10 | – | – | – | 80 | − (− and + indicate the result is below and above the no significant effect threshold, respectively (<30% inhibition at a concentration of 1 μg/ml)) | − (− and + indicate the result is below and above the no significant effect threshold, respectively (<30% inhibition at a concentration of 1 μg/ml)) | – | – | – | –
– | 0.13 | – | – | – | – | – | COCC(=O)Nc1cc(Oc2ccc(NC(=O)Nc3cc(C(C)(C)C)nn3-c3ccc(C)cc3)c3ccccc23)ccn1 [Ref 2, N-(4-(4-(3-(3-tert-butyl-1-p-tolyl-1H-pyrazol-5-yl)ureido)naphthalen-1-yloxy)pyridin-2-yl)-2-methoxy acetamide, reference compound] | – | 100 | – | – | – | − (− and + indicate the result is below and above the no significant effect threshold, respectively (<30% inhibition at a concentration of 1 μg/ml)) | − (− and + indicate the result is below and above the no significant effect threshold, respectively (<30% inhibition at a concentration of 1 μg/ml)) | – | – | – | –

Structure (SMILES) | IC50 ([1]; THP-1 cells, LPS 3 μg/mL, 4 hr) [nM] | EC50 [2] [nM] | IC50 [3, 11] [nM] | IC50 [7] [nM] | IC50 [8] [nM] | IC50 [9] [nM] | IC50 [10] [nM] | IC50 [4, 12] [nM] | inhibition at 0.2 µg/mL [5, 13] [%] | d-U937 MTT Assay 4 h ([6]; performed at 10 μg/mL) | d-U937 MTT Assay 24 h ([6]; performed at 10 μg/mL) | inhibition at 0.04 µg/mL [5, 14] [%] | d-U937 MTT Assay 4 h ([6]; 1 μg/ml) | d-U937 MTT Assay 24 h ([6]; 1 μg/ml) | IC50 ([1]; THP-1, 4 h) [nM] | IC50 ([3]; dU937, 4 h) [nM] | IC50 ([4]; 18 h) [nM] | inhibition at 0.2 µg/mL [5, 14] [%]
COCC(=O)Nc1cc(COc2ccc(NC(=O)Nc3cc(C(C)(C)C)nn3-c3ccc(C)cc3)c3ccccc23)ccn1 [Ref. 1, N-(4-((4-(3-(3-tert-butyl-1-p-tolyl-1H-pyrazol-5-yl)ureido)naphthalen-1-yloxy)methyl)pyridin-2-yl)-2-methoxyacetamide, reference compound] | – | 0.9 | – | – | – | – | – | – | – | − ^d (− and + indicate the result is below and above the no significant effect threshold, respectively (<30% inhibition at a concentration of 1 μg/ml)) | − ^d (− and + indicate the result is below and above the no significant effect threshold, respectively (<30% inhibition at a concentration of 1 μg/ml)) | – | – | – | 2.3 | 92 | 618 | 96
